Tests used:
protein kinase Akt = settings: cited from earlier work
[1] = test system: androgen-independent prostate cancer cells; settings: in vitro and in vivo; cited from earlier work
[2] = test system: CRH (Corticotropin-releasing hormone) and corticosterone; settings: fed to animals; cited from earlier work
hair follicle = experiment: Culture of hair follicle organ and observation of hair follicle cycle; type: cell-based; settings: psoralidin 1, 10 μM vs samples without psoralidin treatment; human hair follicle organ culture
Protocol: For the experiment, a hair transplant was performed to a person with a symptom of partial hair loss. Hair follicle samples of 4 groups each having 15 hair follicles were prepared with remaining follicle samples. William's E medium (Gibco, NY, USA) ) including 500 μl culture medium (2 mM L-glutamine (PAA, Coelbe, Germany), 10 μg/ml insulin, 10 ng/ml hydrocortisone (Sigma, St Louis, Mo.), 0.1% Fungizone (Gibco, NY, USA), 10 μg/ml streptomycin, and 100 U/ml penicillin (Gibco, NY, USA) was dispensed into a 24 well plate (Nunc, Wiesbaden, Germany). Then, the cells were cultured at a density of 5 to 6 cells per well on 500 ul of William's E medium (Gibco, NY, USA).
The cultured cell samples were treated with psoralidin at varying concentrations (0, 1, 10 μM). A sample not treated with psoralidin was used as a control and the medium was changed every 2 to 3 days. After the treatment with psoralidin, the hair follicle was photographed using a stereomicroscope (Dongwon CNS, Korea), and the life cycle of Image hair follicle was classified and schematized.

NIH3T3 (WNT) cells = experiment: Measurement of hair follicle stem cell activity (WNT/β-catenin luciferase assay); type: cell-based; settings: psoralidin 0, 0.01, 0.1, 1, 10 μM for 24 hours; ONE-Glo reagent
Protocol: NIH3T3 (WNT) cells, which are hair follicle stem cells, were seeded in a 96 well plates (Nunc, Wiesbaden, Germany) at a density of 10000 cells/well and cultured for 24 hours (5% CO2, 37° C.). Then, psoralidin was treated at varying concentrations (0, 0.01, 0.1, 1, 10 μM) for 24 hours. 100 μl of ONE-Glo reagent (Promega, Madison, Wis., USA) was added to each well of the 96-well plate and reacted for 3 minutes . After the reaction, the activity of stem eel Is was measured with a luminometer Victor (PerkinElmer, Waltham, Mass., USA).

CC(C)=CCc1cc2c(cc1O)oc(=O)c1c3ccc(O)cc3oc21 [psoralidin]
phosphorylation of protein kinase Akt (protein kinase Akt): inhibits the phosphorylation of protein kinase Akt
growth of androgen-independent prostate cancer cells [1]: inhibiting the growth of androgen-independent prostate cancer cells both in vitro and in vivo
levels of stress hormones CRH and corticosterone [2]: lower the levels of hormones of CRH (Corticotropin-releasing hormone) and corticosterone
speed of the progression to the catagen stage (hair follicle): significantly delayed
time remaining in the anagen stage of the hair follicle cycle (hair follicle): remained longer in the anagen stage
activity of hair follicle stem cells (luminescence, WNT/β-catenin luciferase) (NIH3T3 (WNT) cells): activated

— US10265299B2, “Composition for promoting hair growth and/or hair restoration containing psoralidin” (Amorepacific Corporation, priority 2015, dated 2019)
